Source: PMC9014651 (Bioorganic Chemistry, 2022)
Where a SMILES comes first, the peptide text is derived from it.

Experiments:
SARS-CoV-2 M^pro [1] = biological target: T1, SARS-CoV-2 M^pro (Severe acute respiratory syndrome coronavirus 2, UniProt P0DTD1); assay: IC50 measurement on M^pro; assay type: biochemical
M^pro = details: cited from earlier work
SARS-CoV-2 M^pro [2] = biological target: T1, SARS-CoV-2 M^pro; assay: FRET percent inhibition screening of M^pro inhibitors; assay type: biochemical; details: control experiments

SMILES: Cc1ccccc1NC(=S)N/N=C/c1ccccc1O [2n, (E)-1-(2-hydroxybenzylidene)-4-o-tolylthiosemicarbazide]
- IC50 (SARS-CoV-2 M^pro [1]): 20.7 µM

SMILES: CC(C)(C)NC(=O)N[C@H](C(=O)N1C[C@H]2[C@@H]([C@H]1C(=O)NC(CC1CCC1)C(=O)C(N)=O)C2(C)C)C(C)(C)C (stereo partly shown) [boceprevir]
- IC50 value range (M^pro) (M^pro): single-digit to sub-micromolar

SMILES: O=c1c2ccccc2[se]n1-c1ccccc1 [Ebselen]
- Effect of binding on M^pro stability (thermal shift) (M^pro): destabilization
- Reversibility of M^pro inhibition (M^pro): irreversibly inhibit

SMILES: O=c1c2ccccc2sn1-c1ccccc1 [Ebsulfur]
- Reversibility of M^pro inhibition (M^pro): irreversibly inhibit

SMILES: O=C(CC(c1ccccc1)c1ccccc1)NO [N-hydroxy-3,3-diphenylpropanamide]
- Inhibitory effect on M^pro (control experiment) (SARS-CoV-2 M^pro [2]): no inhibitory effect

SMILES: CCCC(NC(=O)C(CC(C)C)NC(=O)OCc1ccccc1)C(=O)C(=O)NCc1ccccn1 (stereo not shown) [XII]
- IC50 value range (M^pro) (M^pro): single-digit to sub-micromolar

SMILES: CSCC[C@@H](C=O)NC(=O)[C@H](CC(C)C)NC(=O)[C@H](CC(C)C)NC(C)=O [calpain inhibitors II] (Ac-Leu-Leu-Met-aldehyde)
- IC50 value range (M^pro) (M^pro): single-digit to sub-micromolar

SMILES: CC(C)C[C@H](NC(=O)OCc1ccccc1)C(=O)N[C@@H](CC1CCNC1=O)C(O)S(=O)(=O)[O-].[Na+] (stereo partly shown) [GC-376]
- IC50 value range (M^pro) (M^pro): single-digit to sub-micromolar

SMILES: CCN(CC)C(=S)SSC(=S)N(CC)CC [disulfiram]
- Effect of binding on M^pro stability (thermal shift) (M^pro): destabilization
